Holding throughout (type): cell-based
One experiment addresses T1, FAK (Homo sapiens, UniProt Q05397).
T1 construct: FAK/ERK levels in NHM and WM858 after overnight drug incubation; endogenous in cells; host or cells: WM858 melanoma cells and NHM
Put plainly: FAK Y397 auto-phosphorylation by Western blotting after overnight drug incubation. Particulars: melanoma cells, 5 μM. As for the experimental part:
(§1) FIGS. 13A-13P illustrate B-raf^V600E inhibits FAK to promote integrin surface expression. FIG. 13A: shRNAs 841, 102 and NC were induced in WM858 cells by IPTG for 5 days (n=4) followed by RNA quantitation. Genes regulated at 0 vs. 0.05 mM IPTG in 841 and 102 but not NC cells are shown. These were: ITGB3 (orange), FAK (blue). Light orange, light blue: up- or down-regulation, respectively, by either 841 or 102 shRNA. FIG. 13B: WM858 cells were transfected with FAK or EGFP cDNA. Regulated genes, FAK over EGFP cells, are shown in orange (up) or blue (down) (n=4). FIG. 13C: Flow cytometry of NC, 841 and 102 cells (un-induced vs. 0.05 mM IPTG for 5 days). FIG. 13D: Integrin cell surface mean intensities; mean.+−.s.d.; n=3; *, p<0.05; p values, Student's t-test; ns, not significant. FIG. 13E: Visualization of focal adhesions by paxillin staining on micropatterned fibronectin disks. […] FIGS. 13M-13O: FAK/ERK levels in NHM and WM858 after overnight drug incubation (FIG. 13M); quantification of FAK (FIG. 13N) and ERK phosphorylation (FIG. 13O); mean.+−.s.d.; n=4; *, p<0.05; p values, Student's t-test. […]
(§2) PYK2, a FAK-like tyrosine kinase, could not be detected in WM858 cells, irrespective of endogenous FAK levels. WM858 cells carrying control (NC) or FAK-specific shRNAs (841 and 102) were then exposed to IPTG for 5 days, and changes in adhesion gene expression were subsequently quantified by PCR. […]
In general terms: A western blot detects proteins with antibodies after separation by electrophoresis.

Another experiment deals with ERK. Put plainly: ERK activity (phospho-ERK) by Western blotting after overnight drug incubation. Particulars: WM858 melanoma cells, 5 μM. As for the experimental part: as §1, §2
The next experiment relates to β3 integrin. Put plainly: Cell surface β3 integrin expression by flow cytometry after overnight drug incubation. Particulars: 5 μM. As for the experimental part: (§3) FIGS. 13A-13P illustrate B-raf^V600E inhibits FAK to promote integrin surface expression. FIG. 13A: shRNAs 841, 102 and NC were induced in WM858 cells by IPTG for 5 days (n=4) followed by RNA quantitation. Genes regulated at 0 vs. 0.05 mM IPTG in 841 and 102 but not NC cells are shown. These were: ITGB3 (orange), FAK (blue). Light orange, light blue: up- or down-regulation, respectively, by either 841 or 102 shRNA. FIG. 13B: WM858 cells were transfected with FAK or EGFP cDNA. Regulated genes, FAK over EGFP cells, are shown in orange (up) or blue (down) (n=4). FIG. 13C: Flow cytometry of NC, 841 and 102 cells (un-induced vs. 0.05 mM IPTG for 5 days). FIG. 13D: Integrin cell surface mean intensities; mean.+−.s.d.; n=3; *, p<0.05; p values, Student's t-test; ns, not significant. FIG. 13E: Visualization of focal adhesions by paxillin staining on micropatterned fibronectin disks. FIGS. 13F and 13G: Proliferation speed in the absence (FIG. 13F) or presence (FIG. 13G) of FAK shRNAs; mean.+−.s.d.; n=8; *, p<0.05; p values, Student's t-test; ns, not significant. FIGS. 13H and 13I: Scratch wound healing in IPTG-induced cells; representative experiment (n=3). FIGS. 13J and 13K: Effect of IPTG-induced FAK knock-down on total (t) and phospho (p)-ERK; mean.+−.s.d.; n=4; *, p<0.05; p values, Student's t-test. FIG. 13L: Cell surface β1 and β3 integrin expression (flow cytometry) in B-raf^V600E and wild-type cells after overnight drug incubation; % expression relative to DMSO is shown. FIGS. 13M-13O: FAK/ERK levels in NHM and WM858 after overnight drug incubation (FIG. 13M); quantification of FAK (FIG. 13N) and ERK phosphorylation (FIG. 13O); mean.+−.s.d.; n=4; *, p<0.05; p values, Student's t-test. FIG. 13P: ERK activity in NC, 841 and 102 cells (0.05 mM IPTG for 5 days) after overnight drug incubation.
Isopropyl β-D-1-thiogalactopyranoside (IPTG), 4′,6-Diamidino-2-phenylindole dihydrochloridemitomycin (DAPI), blebbistatin and PF-573228 were purchased from Sigma-Aldrich. Dabrafenib (GSK2118436) was purchased from Selleckchem. FAK antibody (06-543) was from EMD MILLIPORE®. FAK pY397 (44624G) antibody was from Life Technologies. Total ERK (9102) and phospho-ERK (4370) antibodies were from Cell Signaling. Paxillin (610051), ITGB3 (555754), ITGB1 (555443) and mouse IgG1 kappa (555749) antibodies were from BD Transduction Labs. Drugs were used at 5 μM final concentration. EGFP control cDNA was from (Lonza). […]
as §2
In general terms: Flow cytometry measures light scatter and fluorescence of single cells or particles in a stream.

In the next experiment the test system is β1 integrin. Put plainly: Cell surface β1 integrin expression by flow cytometry after overnight drug incubation. Particulars: 5 μM. As for the experimental part: as §3
Isopropyl β-D-1-thiogalactopyranoside (IPTG), 4′,6-Diamidino-2-phenylindole dihydrochloridemitomycin (DAPI), blebbistatin and PF-573228 were purchased from Sigma-Aldrich. Dabrafenib (GSK2118436) was purchased from Selleckchem. FAK antibody (06-543) was from EMD MILLIPORE®. FAK pY397 (44624G) antibody was from Life Technologies. Total ERK (9102) and phospho-ERK (4370) antibodies were from Cell Signaling. Paxillin (610051), ITGB3 (555754), ITGB1 (555443) and mouse IgG1 kappa (555749) antibodies were from BD Transduction Labs. Drugs were used at 5 μM final concentration. EGFP control cDNA was from (Lonza). FAK cDNA was obtained from A. Huttenlocher, Addgene plasmid number 35039 (Chan et al., J. Biol. Chem., 285:11418-26 (2010)).
PYK2, a FAK-like tyrosine kinase, could not be detected in WM858 cells, irrespective of endogenous FAK levels. WM858 cells carrying control (NC) or FAK-specific shRNAs (841 and 102) were then exposed to IPTG for 5 days, and changes in adhesion gene expression were subsequently quantified by PCR. […] Moreover, Dabrafenib-induced blockage of ERK activity could be partially reversed by a complete FAK knock-down in 102 cells (FIG. 13P).

Each structure is given as a SMILES string.

T1 sequence (Q05397 whole entry): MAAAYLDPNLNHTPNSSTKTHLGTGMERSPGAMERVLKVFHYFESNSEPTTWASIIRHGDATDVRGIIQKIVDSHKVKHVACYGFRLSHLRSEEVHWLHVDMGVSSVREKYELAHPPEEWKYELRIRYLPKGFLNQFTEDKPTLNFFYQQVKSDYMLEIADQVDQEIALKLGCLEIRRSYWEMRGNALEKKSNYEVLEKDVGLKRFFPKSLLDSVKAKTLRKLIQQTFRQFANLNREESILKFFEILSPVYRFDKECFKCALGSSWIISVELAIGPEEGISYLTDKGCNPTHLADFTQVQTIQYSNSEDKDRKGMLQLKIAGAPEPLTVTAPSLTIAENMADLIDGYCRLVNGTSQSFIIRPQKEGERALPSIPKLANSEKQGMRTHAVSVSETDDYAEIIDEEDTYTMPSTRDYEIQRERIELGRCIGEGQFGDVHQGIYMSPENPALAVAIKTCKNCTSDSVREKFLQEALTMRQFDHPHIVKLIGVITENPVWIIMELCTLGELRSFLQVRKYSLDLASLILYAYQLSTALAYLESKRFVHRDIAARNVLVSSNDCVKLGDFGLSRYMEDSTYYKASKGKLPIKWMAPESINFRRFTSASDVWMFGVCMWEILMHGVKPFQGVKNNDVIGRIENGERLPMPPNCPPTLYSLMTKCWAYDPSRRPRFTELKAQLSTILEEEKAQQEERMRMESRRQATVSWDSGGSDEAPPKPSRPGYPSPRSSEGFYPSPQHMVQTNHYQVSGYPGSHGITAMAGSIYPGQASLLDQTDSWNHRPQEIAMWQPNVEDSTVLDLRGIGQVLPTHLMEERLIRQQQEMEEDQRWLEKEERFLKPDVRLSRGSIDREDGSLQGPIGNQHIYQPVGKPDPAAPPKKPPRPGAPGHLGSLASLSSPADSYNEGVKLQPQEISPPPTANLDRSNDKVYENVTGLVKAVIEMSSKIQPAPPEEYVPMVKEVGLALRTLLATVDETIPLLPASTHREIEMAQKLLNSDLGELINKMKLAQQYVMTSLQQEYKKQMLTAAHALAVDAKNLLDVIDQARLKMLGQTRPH

In the case of `CC(C)(C)c1nc(-c2cccc(NS(=O)(=O)c3c(F)cccc3F)c2F)c(-c2ccnc(N)n2)s1` [Dabrafenib], at FAK, the “FAK tyrosine (Y) 397 auto-phosphorylation” value is “increased”. The ERK activity entry with ERK is recorded as “blockage”. Besides, the “integrin levels (cell surface β3)” value in the experiment with β3 integrin (NHM) is “not”; in the experiment with β3 integrin (most melanoma cells), “reduced”. The “integrin levels (cell surface β1)” value was “not” in the experiment with β1 integrin (NHM) and “reduced” in the experiment on β1 integrin (most melanoma cells).

For the origin of these results see patent US11851710B2, “Methods and materials for identifying metastatic malignant skin lesions and treating skin cancer” (Mayo Foundation for Medical Education and Research, priority 2014, dated 2023).
